Reference: US20120034288A1, “COMPOSITIONS AND METHODS FOR ENHANCED ATTRACTION OF NOCTUID MOTHS” (priority 2010, published 2012)

Columns and labels:
[1] = tested on: Heliothis zea; experiment: Heliothis zea Test 2: field trap capture with added enhancer; type: in vivo; details: Arkansas, enhancer added to pheromone lure
Description: The percent increase in Heliothis zea captures with the addition of the soybean volatile trans-2,cis-6-nonadienal was 44%, 25%, and 54% respectively for Mississippi and Arkansas in test 1 and in Arkansas in test 2.

[2] = tested on: Heliothis zea; experiment: Heliothis zea Test 1: field trap capture, Hercon pheromone lure with/without enhancer; type: in vivo; details: for percent increase in Heliothis zea captures: test 1, enhancer added to pheromone lure
Protocol: 12 traps were set in Yazoo City and 10 in Monroe County, Miss. From mid June through mid September trans-2, cis-6-nonadienal, a compound reported from the volatiles of corn and soybean plants was tested. Both treatments used a commercial Heliothis zea pheromone dispenser produced by Hercon. The standard was this lure only, while the enhanced traps also contained a dispenser produced in-house that contained the enhancer.

## CC/C=C\CC/C=C/C=O [trans-2,cis-6-nonadienal, trans-2, cis-6-nonadienal]
[1]
  percent increase in Heliothis zea captures: 54%
[2]; Arkansas
  percent increase in Heliothis zea captures: 25%
[2]; Mississippi
  percent increase in Heliothis zea captures: 44%
[2]; statement in words
  function as an enhancer for attracting H. zea: functioned as an enhancer
